Measurements: US6891054B2, “Functional acylglycerides” (Natural AS, priority 2001, dated 2005)

What was measured:
[1] = Peroxide value (PV), spectrophotometric ferric thiocyanate method, after storage in open glass; type: physicochemical
Excerpt: The present invention also contemplates stabilization of the CLA acylglycerides by preventing oxidation of the compounds. The present invention is not limited to any one mechanism. Indeed, an understanding of the mechanism of the invention is not necessary to produce the composition or perform the methods of the present invention. […] After storage in open glass, the PV of CLA was 32; in comparison, the value for linoleic acid was 370.

[2] = system: human melanoma, colorectal and breast cancer cells; conditions: in vitro; cited from earlier work
[3] = CLA incorporated into animal feed; cited from earlier work
[4] = diet containing 0.5 percent CLA, cited from earlier work
[5] = system: rat mammary tumorigenesis; conditions: administration of CLA; cited from earlier work
[6] = system: CD-4 and CD-8 lymphocyte subpopulations; conditions: oral or parenteral, free acid or salt form; cited from earlier work

| peroxide value (PV) [1] | Compound | cytotoxicity [2] | efficiency of feed conversion [3] | body weight [4] | fat content ([4]; pigs, mice, humans) | protein mass ([4]; pigs, mice, humans) | effect on rat mammary tumorigenesis [5] | CD-4 and CD-8 lymphocyte subpopulations [6] |
| --- | --- | --- | --- | --- | --- | --- | --- | --- |
| 370 | CCCCC/C=C\C/C=C\CCCCCCCC(=O)O [linoleic acid, reference compound] |  |  |  |  |  |  |  |
| 32 | conjugated linoleic acid [CLA] | strong cytotoxic agent | increased the efficiency of feed conversion | no increase | significant drop | concomitant increase | inhibits rat mammary tumorigenesis | elevation |
